According to the supplement of paper PMC11061612:

Experiments:
Assay in all cases: Bliss excess, mean over the matrix (fraction); higher = more synergy
A704 (Kidney Carcinoma) = tested on: A704 (Kidney Carcinoma)
Outline: (§1)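 After 24 hours at 37°C and 5% CO2 in 1536-well plates, cells in DMEM/F12 or RPMI plus 10% FBS received two-drug dose matrices for 72 hours. Viability came from CellTiter-Glo 2.0 luminescence and was scaled as inhibition, anchored at 0 by vehicle wells and at 1 by blank wells. Combination Emax is taken as the second-highest inhibition in the matrix, and Bliss excess as the observed combination effect less EA + EB − EA·EB, with EA and EB the single-agent effects.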

BT-20 (Breast Carcinoma) = tested on: BT-20 (Breast Carcinoma)
Outline: as §1

[1] = tested on: DG-75 (Burkitt's Lymphoma)
Outline: as §1

[2] = tested on: EBC-1 (Squamous Cell Lung Carcinoma)
Outline: as §1

EW-18 (Ewing's Sarcoma) = tested on: EW-18 (Ewing's Sarcoma)
Outline: as §1

GOTO (Neuroblastoma) = tested on: GOTO (Neuroblastoma)
Outline: as §1

IMR-5 (Neuroblastoma) = tested on: IMR-5 (Neuroblastoma)
Outline: as §1

[3] = tested on: KP-2 (Pancreatic Carcinoma)
Outline: as §1

[4] = tested on: KU-19-19 (Bladder Carcinoma)
Outline: as §1

[5] = tested on: LOU-NH91 (Squamous Cell Lung Carcinoma)
Outline: as §1

[6] = tested on: NCI-H2347 (Lung Adenocarcinoma)
Outline: as §1

[7] = tested on: NCI-H322M (Lung Adenocarcinoma)
Outline: as §1

[8] = tested on: OCUM-1 (Gastric Carcinoma)
Outline: as §1

[9] = tested on: OVISE (Ovarian Carcinoma)
Outline: as §1

RPMI-7951 (Melanoma) = tested on: RPMI-7951 (Melanoma)
Outline: as §1

[10] = tested on: SCC-3 (B-Cell Non-Hodgkin's Lymphoma)
Outline: as §1

[11] = tested on: SCC-9 (Oral Cavity Carcinoma)
Outline: as §1

[12] = tested on: SNU-C1 (Colorectal Carcinoma)
Outline: as §1

[13] = tested on: TGBC11TKB (Gastric Carcinoma)
Outline: as §1

Row | Structure (SMILES) | Bliss excess (A704 (Kidney Carcinoma)) | Bliss excess (BT-20 (Breast Carcinoma)) | Bliss excess [1] | Bliss excess [2] | Bliss excess (EW-18 (Ewing's Sarcoma)) | Bliss excess (GOTO (Neuroblastoma)) | Bliss excess (IMR-5 (Neuroblastoma)) | Bliss excess [3] | Bliss excess [4] | Bliss excess [5] | Bliss excess [6] | Bliss excess [7] | Bliss excess [8] | Bliss excess [9] | Bliss excess (RPMI-7951 (Melanoma)) | Bliss excess [10] | Bliss excess [11] | Bliss excess [12] | Bliss excess [13]
1 | C[C@@H]1COCCN1c1cc(C2([S@](C)(=N)=O)CC2)nc(-c2ccnc3[nH]ccc23)n1 [AZD6738] + O=C(c1cc(Cc2n[nH]c(=O)c3ccccc23)ccc1F)N1CCN(C(=O)C2CC2)CC1 [Olaparib] (first compound max 10 µM, 7x7, partner max 10 µM) | -0.0282 | 0.0472 | -0.0619 | -0.0153 | 0.0292 | -0.0645 | 0.0432 | 0.0024 | -0.032 | 0.0035 | -0.0515 | -0.0491 | -0.0399 | 0.0393 | 0.0207 | 0.0103 | 0.0422 | -0.0345 | -0.0236
2 | Cc1cc2ncnn2cc1Nc1ncc2c(n1)n(C1CCOCC1)c(=O)n2C [AZD7648] + C=CCn1c(=O)c2cnc(Nc3ccc(N4CCN(C)CC4)cc3)nc2n1-c1cccc(C(C)(C)O)n1 [AZD1775] (first compound max 10 µM, partner max 1 µM) | -0.0409 | -0.0186 | -0.0652 | -0.0041 | -0.0322 | -0.0421 | -0.0146 | -0.014 | -0.0201 | 0.012 | -0.0279 | -0.0215 | -0.0244 | -0.0043 | -0.039 | -0.0277 | 0.0332 | -0.0209 | -0.0551
3 | Cc1cc2ncnn2cc1Nc1ncc2c(n1)n(C1CCOCC1)c(=O)n2C [AZD7648] + CCN(CCO)CCCOc1ccc2c(Nc3cc(CC(=O)Nc4cccc(F)c4)[nH]n3)ncnc2c1 [AZD2811] (first compound max 10 µM, 7x7, partner max 1 µM) | -0.0368 | -0.0432 | 0.0393 | 0.0147 | -0.0154 | 0.0582 | -0.0188 | -0.0206 | 0.0227 | 0.0693 | 0.0131 | -0.0182 | -0.0093 | -0.0105 | 0.0312 | 0.0548 | 0.0414 | -0.0184 | 0.0666
4 | Cc1cc2ncnn2cc1Nc1ncc2c(n1)n(C1CCOCC1)c(=O)n2C [AZD7648] + CN(C)CCCOc1ccc(-c2ccc3ncc4c(c3c2)n(C2CCOCC2)c(=O)n4C)cn1 [AZD0156] (first compound max 10 µM, 7x7, partner max 1 µM) | -0.0152 | 0.0154 | 0.0226 | 0.0204 | -0.0268 | -0.0264 | 0.009 | -0.0182 | 0.0009 | 0.0454 | 0.0159 | 0.0083 | 0.0016 | 0.0265 | -0.0164 | 0.0458 | -0.0144 | -0.0423 | -0.0224
5 | Cc1cc2ncnn2cc1Nc1ncc2c(n1)n(C1CCOCC1)c(=O)n2C [AZD7648] + C[C@@H]1COCCN1C2=NC(=NC(=C2)C3(CC3)[S@](=N)(=O)C)C4=C5C=CNC5=NC=C4 [AZD6738] (first compound max 10 µM, 7x7, partner max 10 µM) | 0.0177 | 0.0399 | -0.0477 | 0.0513 | -0.0133 | -0.0205 | 0.0088 | 0.0004 | -0.0127 | 0.0337 | -0.0451 | -0.0048 | 0.009 | 0.0508 | 0.0028 | -0.0083 | 0.0507 | -0.0708 | 0.0009
6 | Cc1cc2ncnn2cc1Nc1ncc2c(n1)n(C1CCOCC1)c(=O)n2C [AZD7648] + O=C(c1cc(Cc2n[nH]c(=O)c3ccccc23)ccc1F)N1CCN(C(=O)C2CC2)CC1 [Olaparib] (first compound max 10 µM, 7x7, partner max 10 µM) | -0.0821 | -0.0492 | 0.0465 | -0.0167 | -0.0427 | 0.0388 | 0.0328 | -0.0017 | -0.0153 | -0.0301 | -0.0144 | -0.0342 | -0.0571 | -0.0526 | 0.0044 | -0.0757 | -0.0438 | -0.0619 | -0.0447
7 | COc1cccc2c1C(=O)c1c(O)c3c(c(O)c1C2=O)C[C@@](O)(C(=O)CO)C[C@@H]3O[C@H]1C[C@H](N)[C@H](O)[C@H](C)O1 [Doxorubicin] + Cc1cc2ncnn2cc1Nc1ncc2c(n1)n(C1CCOCC1)c(=O)n2C [AZD7648] (first compound max 1 µM, 7x7, partner max 10 µM) | -0.023 | 0.0371 | 0.0787 | 0.0275 | 0.0402 | 0.0644 | 0.194 | 0.0223 | 0.0843 | 0.0236 | -0.0486 | 0.0751 | 0.0162 | 0.0341 | 0.0709 | 0.158 | -0.0027 | -0.0037 | -0.0146
8 | COc1cccc(OCCCN)c1-c1cc(Nc2cnc(C#N)cn2)n[nH]1 [Prexasertib] + C=CCn1c(=O)c2cnc(Nc3ccc(N4CCN(C)CC4)cc3)nc2n1-c1cccc(C(C)(C)O)n1 [AZD1775] (first compound max 1 µM, partner max 1 µM) | 0.018 | 0.0725 | 0.0708 | 0.0628 | -0.0615 | 0.0074 | 0.12 | 0.112 | 0.0222 | 0.0332 | -0.0548 | 0.0366 | 0.0518 | 0.0144 | 0.0723 | 0.051 | 0.0249 | 0.0175 | 0.0431
